As a reminder, the pIC50 is the negative decadic logarithm of the IC50, by convention in mol/L.

pIC50: −log10 of the molar value.

The subject of the first test is P. aeruginosa PA14. The experiment in a line: IC50 of compounds in conjunction with colistin relative to P. aeruginosa (growth, absorbance at 600 nm). To be noted: Pseudomonas aeruginosa, PA14, 17 h. It counts as cell-based. As for the experimental part:
Various compounds of formula I in Example 1 above were tested to determine IC50 of the compounds in conjunction with colistin relative to P. aeruginosa. IC50 testing of the compounds was conducted to the following protocol. Overnight cultures of P. aeruginosa PA14 were back diluted into fresh LB to an OD600 of 2.5×10^−3. Using polypropylene 96 well plates (Corning 3879), the potential antibiotic adjuvant was assayed with a 3-fold dilution starting with a […]. The concentration of colistin was held constant at sublethal concentration ([…]), using a freshly prepared colistin stock and minimizing transfers of colistin-containing solutions. After 17 h of aerobic growth at 37° C., 300 rpm, the absorbance at 600 nm was recorded.
As for `C#Cc1ccc(OCCCCCC(=O)Nc2ccnc(C(F)(F)F)c2)cc1` [Compound S20, 6-(4-Ethynylphenoxy)-N-(2-(trifluoromethyl)pyridin-4-yl)hexanamide], the pIC50 was 4.81.

Staying with this test, now noted: Pseudomonas aeruginosa; P. aeruginosa PA14 in LB; colistin held constant at sublethal concentration (0.25 to 0.375 pg/mL); 3-fold dilution starting with a 250 concentration; 17 h aerobic growth at 37° C.; absorbance at 600 nm; read-out: IC50.
As to `CSc1ccc(OCCCCCC(=O)Nc2ccnc(C(F)(F)F)c2)cc1` [Compound S17, 6-(4-(Methylthio)phenoxy)-N-(2-(trifluoromethyl)pyridin-4-yl)hexanamide], the pIC50 is 4.85.

For `C#Cc1ccccc1OCCCCCC(=O)Nc1ccnc(C(F)(F)F)c1` [Compound S22, 6-(2-Ethynylphenoxy)-N-(2-(trifluoromethyl)pyridin-4-yl)hexanamide], the pIC50 was 4.81.

`CC(C)(C)c1ccc(OCCCCCC(=O)Nc2ccnc(C(F)(F)F)c2)cc1` [Compound S27, 6-(4-(tert-Butyl)phenoxy)-N-(2-(trifluoromethyl)pyridin-4-yl)hexanamide]: the pIC50 is 5.59.

As for `CC(C)(C)c1cccc(OCCCCCC(=O)Nc2ccnc(C(F)(F)F)c2)c1` [Compound S28, 6-(3-(tert-Butyl)phenoxy)-N-(2-(trifluoromethyl)pyridin-4-yl)hexanamide], the pIC50 is 6.10.

In the case of `O=C(CCCCCOc1ccc(C(=O)OCc2ccccc2)cc1)Nc1ccnc(C(F)(F)F)c1` [Compound S30, Benzyl 4-((6-oxo-6((2-(trifluoromethyl)pyridin-4-yl)amino)hexyl)oxy)benzoate], the pIC50 was 5.59.

`CC(=O)c1ccccc1OCCCCCC(=O)Nc1ccnc(C(F)(F)F)c1` [Compound S32, 6-(2-Acetylphenoxy)-N-(2-(trifluoromethyl)pyridin-4-yl)hexanamide]: the pIC50 is 4.24.

On to `COC(=O)c1ccc(OCCCCCC(=O)Nc2ccnc(C(F)(F)F)c2)cc1` [Compound S34, Methyl 4-((6-oxo-6-((2-(trifluoromethyl)pyridin-4-yl)amino)hexyl)oxy)benzoate], for which the pIC50 was 4.06.

In the case of `O=C(CCCCCOc1ccc2ccccc2c1)Nc1ccnc(C(F)(F)F)c1` [Compound S38, 6-(Naphthalen-2-yloxy)-N-(2-(trifluoromethyl)pyridin-4-yl)hexanamide], the pIC50 was 5.59.

In the case of `O=C(CCCCCOc1cccc2ccccc12)Nc1ccnc(C(F)(F)F)c1` [Compound S39, 6-(Naphthalen-1-yloxy)-N-(2-(trifluoromethyl)pyridin-4-yl)hexanamide], the pIC50 is 4.82.

Take `O=C(CCCCCN1CCN(c2ccccc2)CC1)Nc1ccnc(C(F)(F)F)c1` [Compound S40, 6-(4-Phenylpiperazin-1-yl)-N-(2-(trifluoromethyl)pyridin-4-yl)hexanamide]: the pIC50 is 4.30.

On to `O=C(CCCCCN1CCN(c2ccccn2)CC1)Nc1ccnc(C(F)(F)F)c1` [Compound S41, 6-(4-(Pyridin-2-yl)piperazin-1-yl)-N-(2-(trifluoromethyl)pyridin-4-yl)hexanamide], for which the pIC50 was 4.02.

For `O=C(CCCCCN1CCN(c2cccnc2)CC1)Nc1ccnc(C(F)(F)F)c1` [Compound S42, 6-(4-(Pyridin-3-yl)piperazin-1-yl)-N-(2-(trifluoromethyl)pyridin-4-yl)hexanamide], the pIC50 was 4.15.

Turning to `O=C(CCCCCN1CCN(c2ccncc2)CC1)Nc1ccnc(C(F)(F)F)c1` [Compound S43, 6-(4-(Pyridin-4-yl)piperazin-1-yl)-N-(2-(trifluoromethyl)pyridin-4-yl)hexanamide], the pIC50 was 4.12.
